# Measured values: paper PMC5463734, “Structure-guided optimization of quinoline inhibitors of Plasmodium N-myristoyltransferase” (MedChemComm, 2016)
# “And” between values parts separate entries of the source, which are not always exact repeats. Equal values may be shown once. Read-outs that look alike come from different tables or passages of the source.
# Tests used:
# [1] = biological target: T1, recombinant H. sapiens NMT isoform 1 (HsNMT1) (Homo sapiens, UniProt P30419); test: fluorogenic 96-well plate enzymatic assay for HsNMT1 activity; type: biochemical; conditions: for Ki: recombinant enzyme, mean ± SD from duplicates, Ki app from IC50 by Cheng-Prusoff
# T1 sequence (P30419 1-496): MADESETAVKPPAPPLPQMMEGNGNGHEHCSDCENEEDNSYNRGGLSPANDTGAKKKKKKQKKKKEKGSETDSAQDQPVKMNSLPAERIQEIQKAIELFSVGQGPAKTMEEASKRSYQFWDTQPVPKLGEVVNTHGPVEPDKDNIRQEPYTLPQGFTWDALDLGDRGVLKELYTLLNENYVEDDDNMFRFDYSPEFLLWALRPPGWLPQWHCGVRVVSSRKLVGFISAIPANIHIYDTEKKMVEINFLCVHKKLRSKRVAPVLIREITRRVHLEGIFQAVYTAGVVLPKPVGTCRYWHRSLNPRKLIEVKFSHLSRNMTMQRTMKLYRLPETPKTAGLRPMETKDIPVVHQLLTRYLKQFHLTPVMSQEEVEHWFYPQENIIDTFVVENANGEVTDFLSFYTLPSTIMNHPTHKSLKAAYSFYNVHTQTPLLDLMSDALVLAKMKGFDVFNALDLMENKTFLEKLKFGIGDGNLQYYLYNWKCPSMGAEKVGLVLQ
# Description: (§1) Final compounds were tested using a previously described fluorogenic 96-well plate assay for PvNMT,2 PfNMT3 and […]
# (§2) nonlinear regression fitting using GraFit 7.0 (Erithacus Software Ltd., U.K.). Apparent inhibition constants, Kiapp, were calculated from experimental IC50 using Cheng-Prussof equation.5
# [2] = biological target: T2, recombinant P. falciparum NMT (PfNMT) (Plasmodium falciparum, UniProt Q9U419); test: fluorogenic 96-well plate enzymatic assay for PfNMT activity; type: biochemical; conditions: for Ki: recombinant enzyme, mean ± SD from duplicates, Ki app from IC50 by Cheng-Prusoff; for totally inactive on PfNMT up to: highest concentration without activity
# T2 sequence (Q9U419 1-410): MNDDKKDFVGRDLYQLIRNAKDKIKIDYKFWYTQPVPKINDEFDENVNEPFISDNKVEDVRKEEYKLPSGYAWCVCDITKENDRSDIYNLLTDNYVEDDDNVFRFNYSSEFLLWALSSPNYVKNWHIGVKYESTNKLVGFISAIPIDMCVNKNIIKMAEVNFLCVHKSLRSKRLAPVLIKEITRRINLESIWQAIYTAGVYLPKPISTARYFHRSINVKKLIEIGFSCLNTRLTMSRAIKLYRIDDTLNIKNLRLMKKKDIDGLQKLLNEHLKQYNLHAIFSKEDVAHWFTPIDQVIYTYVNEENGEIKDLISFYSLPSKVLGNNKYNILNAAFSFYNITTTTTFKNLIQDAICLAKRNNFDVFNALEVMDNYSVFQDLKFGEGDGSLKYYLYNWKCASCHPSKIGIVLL
# Description: (§3) The only residue in the inhibitor-binding pocket that differs between these NMTs is Tyr334 (Pv numbering), which is replaced by a phenylalanine in PfNMT.
# as §1, §2
# [3] = biological target: T3, recombinant H. sapiens NMT isoform 2 (HsNMT2) (Homo sapiens, UniProt O60551); test: fluorogenic 96-well plate enzymatic assay for HsNMT2 activity; type: biochemical; conditions: for Ki: recombinant enzyme, mean ± SD from duplicates, Ki app from IC50 by Cheng-Prusoff
# T3 sequence (O60551 1-498): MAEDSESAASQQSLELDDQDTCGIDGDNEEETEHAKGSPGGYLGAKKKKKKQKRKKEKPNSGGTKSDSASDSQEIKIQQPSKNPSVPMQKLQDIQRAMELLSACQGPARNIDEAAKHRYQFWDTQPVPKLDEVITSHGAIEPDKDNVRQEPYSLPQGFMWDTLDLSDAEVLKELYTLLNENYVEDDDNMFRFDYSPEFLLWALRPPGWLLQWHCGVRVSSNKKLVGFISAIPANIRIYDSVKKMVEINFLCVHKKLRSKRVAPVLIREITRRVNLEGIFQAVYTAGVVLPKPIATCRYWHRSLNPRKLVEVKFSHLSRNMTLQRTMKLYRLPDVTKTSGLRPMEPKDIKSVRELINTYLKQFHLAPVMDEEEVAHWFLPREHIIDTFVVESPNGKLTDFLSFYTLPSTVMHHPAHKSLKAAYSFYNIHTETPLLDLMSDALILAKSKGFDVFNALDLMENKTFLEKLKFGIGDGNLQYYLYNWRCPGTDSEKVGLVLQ
# Description: as §1, §2
# [4] = biological target: T4, recombinant P. vivax NMT (PvNMT) (Plasmodium vivax, UniProt A5K1A2); test: biochemical; type: biochemical; conditions: for LipE: lipophilic efficiency, LipE = –log(Ki) – clog P, based on PvNMT data; for Ki: recombinant enzyme, mean ± SD from duplicates, Ki app from IC50 by Cheng-Prusoff
# T4 sequence (A5K1A2 1-410): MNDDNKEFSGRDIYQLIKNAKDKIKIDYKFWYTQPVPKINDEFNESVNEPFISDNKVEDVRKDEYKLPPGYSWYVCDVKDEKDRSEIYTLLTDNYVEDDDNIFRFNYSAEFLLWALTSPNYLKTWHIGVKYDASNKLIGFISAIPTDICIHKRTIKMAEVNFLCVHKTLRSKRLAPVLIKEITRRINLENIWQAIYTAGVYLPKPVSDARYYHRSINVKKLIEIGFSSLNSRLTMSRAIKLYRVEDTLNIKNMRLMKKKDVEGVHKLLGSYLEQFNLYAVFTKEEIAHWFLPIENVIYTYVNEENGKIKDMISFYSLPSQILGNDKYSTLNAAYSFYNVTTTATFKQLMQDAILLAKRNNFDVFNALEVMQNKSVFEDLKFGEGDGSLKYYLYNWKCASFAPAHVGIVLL
# Description: as §3, §1, §2
# [5] = solubility in assay buffer; conditions: could not be evaluated
# [6] = biological target: T4, recombinant P. vivax NMT (PvNMT); design: method as in PMID 22439843; conditions: recombinant enzyme; read-out: Ki app PvNMT; cited from earlier work
# [7] = stability in phosphate buffered solutions used for enzymatic assay; type: physicochemical
# Excerpt: It is well known that 2-cyanoethylthioethers can be cleaved in the presence of weak bases such as ammonia through a retro-Michael reaction.[27]
Structure (SMILES),Ki [1],Ki ([2]; read-out: Ki app PfNMT),Ki [3],LipE [4],Ki ([4]; read-out: Ki app PvNMT),also measured
CCCSc1c(C(=O)OCC)cnc2ccc(OCc3ccccc3)cc12 [Compound 5],3360 ± 370 nM,1100 ± 80 nM,> 10000 nM,0.22,2080 ± 140 nM,fold improvement in activity versus PfNMT ([2]; n-propyl thioether vs 2-cyanoethyl thioether): > 10 fold
CCOC(=O)c1cnc2ccc(OCc3ccccc3)cc2c1S(=O)(=O)CC [Compound 10],> 10000 nM,> 10000 nM,> 10000 nM,2.34,1780 ± 470 nM,–
CCNC(=O)c1cnc2ccc(OCc3ccccc3)cc2c1SCC [Compound 13],1050 ± 115 nM,960 ± 110 nM,> 10000 nM,2.46,340 ± 50 nM,selectivity versus HsNMT1 ([1]; relative to PvNMT): 3 fold; selectivity versus HsNMT2 ([3]; relative to PvNMT): 30 fold
CCOC(=O)c1cnc2ccc(OCc3ccccc3)cc2c1[S+]([O-])CC (stereo not drawn) [Compound 9],3600 ± 300 nM,5650 ± 1240 nM,> 10000 nM,2.46,1750 ± 120 nM,–
CCSc1c(C(=O)N2CCCC2)cnc2ccc(OCc3ccccc3)cc12 [Compound 15],1360 ± 210 nM,1520 ± 290 nM,> 10000 nM,1.74,960 ± 130 nM,–
"CCCCc1c(C)nc2ccc(OC)cc2c1SCCC#N [MRT00057965, 3-butyl-4-((2-cyanoethyl)thio)-6-methoxy-2-methylquinoline]",–,–,–,–,–,totally inactive on PfNMT up to [2]: > 100 µM
CCSc1c(C(=O)Nc2ccccc2)cnc2ccc(OCc3ccccc3)cc12 [Compound 16],–,–,–,–,–,solubility [5]: poorly soluble
CCOCc1cnc2ccc(OCc3ccccc3)cc2c1SCC [Compound 12],> 10000 nM,2690 ± 510 nM,> 10000 nM,0.72,2920 ± 150 nM,–
CCSc1c(C(=O)N(CC)CC)cnc2ccc(OCc3ccccc3)cc12 [Compound 14],1020 ± 130 nM,940 ± 90 nM,3530 ± 400 nM,1.80,410 ± 60 nM,–
CCSc1c(C(=O)Nc2nccs2)cnc2ccc(OCc3ccccc3)cc12 [Compound 17],–,–,–,–,–,solubility [5]: poorly soluble
CCOC(=O)c1cnc2ccc(OCc3ccccc3)cc2c1SCC [Compound 7],1560 ± 220 nM,670 ± 40 nM,4230 ± 530 nM,1.42,440 ± 50 nM,–
CCSc1c(C(=O)N2CCOCC2)cnc2ccc(OCc3ccccc3)cc12 [Compound 19],–,–,590 ± 50 nM,–,–,Ki ([2]; Ki app PfNMT): 330 ± 20 nM; Ki ([4]; Ki app PvNMT): 200 ± 20 nM
"CCOC(=O)c1cnc2ccc(OC)cc2c1SCCC#N [Compound 1, ethyl 4-((2-cyanoethyl)thio)-6-methoxyquinoline-3-carboxylate]",–,–,–,–,–,Ki [6]: 4700 nM and 4740 nM; stability in phosphate buffered solutions [7]: fully stable
CCOC(=O)c1cnc2ccc(OCc3ccccc3)cc2c1SC(C)C [Compound 6],4840 ± 640 nM,–,> 10000 nM,–,–,Ki ([2]; Ki app PfNMT): 1990 ± 300 nM

# Further lines, with some results ahead:
Ki [1],Ki ([2]; read-out: Ki app PfNMT),Ki [3],LipE [4],Ki ([4]; read-out: Ki app PvNMT),Structure (SMILES),also measured
> 10000 nM,> 10000 nM,–,1.90,550 ± 60 nM,CCOC(=O)c1cnc2ccc(OCc3ccccc3)cc2c1SCCC#N [Compound 4],totally inactive on PfNMT up to [2]: > 100 µM; fold improvement in activity compared to the original methoxy compound ([4]; 6-benzyloxy vs 6-methoxy compound 1): 8 fold
> 10000 nM,8000 ± 3980 nM,> 10000 nM,2.36,2840 ± 380 nM,CCSc1c(C(=O)NCCO)cnc2ccc(OCc3ccccc3)cc12 [Compound 18],–
–,5900 ± 600 nM,–,0.69,4140 ± 410 nM,CCOC(=O)c1cnc2ccc(OCc3ccccc3)cc2c1SC [Compound 8],–
> 10000 nM,> 10000 nM,> 10000 nM,1.57,4190 ± 550 nM,CCSc1c(CO)cnc2ccc(OCc3ccccc3)cc12 [Compound 11],–
50 ± 10 nM,1250 ± 80 nM,410 ± 70 nM,3.57,280 ± 20 nM,CCOC(=O)c1cnc2ccc(OCc3ccc(NCCN)nc3)cc2c1SCC [Compound 24],–
